Data: ChEMBL document CHEMBL1151666, “Novel Zaragozic Acids from Leptodontidium elatius” (J Nat Prod, 1996)

Key:
Squalene synthase [1] = target: T1, Squalene synthase (Homo sapiens, UniProt P37268); test: Inhibition of squalene synthase
T1 sequence (P37268 whole entry): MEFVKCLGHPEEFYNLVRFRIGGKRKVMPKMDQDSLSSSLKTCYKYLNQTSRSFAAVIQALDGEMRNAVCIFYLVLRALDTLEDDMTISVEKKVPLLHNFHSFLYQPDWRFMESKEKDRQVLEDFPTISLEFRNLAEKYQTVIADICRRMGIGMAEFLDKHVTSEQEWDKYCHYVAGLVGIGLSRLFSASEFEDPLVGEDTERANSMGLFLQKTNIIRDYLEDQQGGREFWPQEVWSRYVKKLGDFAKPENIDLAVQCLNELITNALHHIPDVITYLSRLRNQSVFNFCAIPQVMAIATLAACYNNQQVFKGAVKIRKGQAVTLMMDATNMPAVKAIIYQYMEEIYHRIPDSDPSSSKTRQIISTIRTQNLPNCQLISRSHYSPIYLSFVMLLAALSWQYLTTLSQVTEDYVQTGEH

Squalene synthase [2] = target: T2, Squalene synthase (Rattus norvegicus, UniProt Q02769); test: Inhibition of rat squalene synthase
T2 sequence (Q02769 whole entry): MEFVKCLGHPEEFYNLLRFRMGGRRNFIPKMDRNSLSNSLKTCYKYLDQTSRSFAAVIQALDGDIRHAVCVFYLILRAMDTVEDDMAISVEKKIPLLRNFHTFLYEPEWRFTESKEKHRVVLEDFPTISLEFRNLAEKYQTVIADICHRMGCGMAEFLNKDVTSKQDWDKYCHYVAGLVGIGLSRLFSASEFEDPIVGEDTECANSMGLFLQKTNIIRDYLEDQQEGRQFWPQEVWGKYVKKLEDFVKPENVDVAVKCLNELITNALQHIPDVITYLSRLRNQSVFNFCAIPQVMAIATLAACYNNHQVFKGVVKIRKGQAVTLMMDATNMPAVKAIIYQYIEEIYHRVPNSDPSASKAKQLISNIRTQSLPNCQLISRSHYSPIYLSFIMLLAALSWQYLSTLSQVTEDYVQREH

| IC50 (Squalene synthase [1]) [nM] | Ki (Squalene synthase [2]) [nM] | SMILES |
| --- | --- | --- |
| 2 | – | CCCCCCC[C@@H](CCC[C@]12O[C@H](C(=O)O)[C@@](O)(C(=O)O)[C@](C(=O)O)(O1)[C@H](OC(=O)CC/C=C/[C@@H](C)CCCc1ccccc1)[C@H]2O)OC(C)=O [ZARAGOZIC ACID F] |
| 0.3 | 0.045 | CC(=O)O[C@H](CCC[C@]12O[C@H](C(=O)O)[C@@](O)(C(=O)O)[C@](C(=O)O)(O1)[C@H](OC(=O)CC/C=C/[C@H](C)CCCc1ccccc1)[C@H]2O)[C@H](C)Cc1ccccc1 [ZARAGOZIC ACID C] |
| 4 | – | C[C@H](/C=C/CCC(=O)O[C@@H]1[C@@H](O)[C@@]2(CC/C=C/[C@H](C)CCCc3ccccc3)O[C@H](C(=O)O)[C@@](O)(C(=O)O)[C@]1(C(=O)O)O2)CCCc1ccccc1 [ZARAGOZIC ACID E] |
| 0.2 | – | C[C@@H](CCCC[C@]12O[C@H](C(=O)O)[C@@](O)(C(=O)O)[C@](C(=O)O)(O1)[C@H](OC(=O)CC/C=C/[C@@H](C)CCCc1ccccc1)[C@H]2O)Cc1ccccc1 |
